Measured values reported in patent publication US10123537B2, “Amide compound or salt thereof, agricultural and horticultural insecticide and microbicide comprising the compound, and method for using the insecticide and microbicide” (NIHON NOHYAKU CO., LTD., priority 2013, dated 2018).

tested on: wheat powdery mildew fungus Erysiphe graminis; settings: 200 ppm, foliar application to wheat plants, 10 mL per pot, 7 days after inoculation

Row | Structure (SMILES) | control effect (control rate, lesion area) activity level
1 | CC[S+]([O-])c1cc(C(F)(F)F)cnc1C(=O)N(c1ccc(C(F)(F)F)cn1)C1CC1 (centres unmarked) [Compound 1-14] | D or higher
2 | CC[S+]([O-])c1cc(C(F)(F)F)ccc1C(=O)Nc1ccc(OC(F)(F)C(F)F)cc1C (centres unmarked) [Compound 5-70] | D or higher
3 | CC[S+]([O-])c1cc(C(F)(F)F)ccc1C(=O)Nc1ccc(F)c(C(F)(F)F)c1F (centres unmarked) [Compound 4-21] | D or higher
4 | CCSc1cc(SC(F)(F)F)ccc1C(=O)Nc1ccc(C(F)(C(F)(F)F)C(F)(F)F)cc1Cl [Compound 6-22] | D or higher
5 | CCS(=O)(=O)c1cc(C(F)(F)F)ccc1C(=O)N(C)c1ccc(C(F)(F)C(F)(F)F)c(C)c1 [Compound 3-47] | D or higher
6 | CCS(=O)(=O)c1cc(C(F)(F)F)ccc1C(=O)Nc1ccc(OC(F)(F)C(F)F)cc1C [Compound 5-71] | D or higher
7 | CC[S+]([O-])c1cc(C(F)(F)F)ccc1C(=O)N(C)c1ccc(Cl)c(C(F)(F)F)c1 (centres unmarked) [Compound 3-31] | D or higher
8 | CCS(=O)(=O)c1cc(C(F)(F)F)ccc1C(=O)N(C)c1ccc(SC(F)(F)F)cc1 [Compound 3-17] | D or higher
9 | CC[S+]([O-])c1cc(C(F)(F)F)ccc1C(=O)N(C)c1ccc(I)cc1F (centres unmarked) [Compound 3-34] | D or higher
10 | CCS(=O)(=O)c1cc(C(F)(F)F)cnc1C(=O)N(c1ccc(C(F)(F)F)cn1)C1CC1 [Compound 1-15] | D or higher
11 | CC[S+]([O-])c1cc(C(F)(F)F)ccc1C(=O)N(C)c1ccc(Cl)c(Cl)c1 (centres unmarked) [Compound 3-28] | D or higher
12 | CCc1cc(OC(F)(F)F)ccc1NC(=O)c1ccc(C(F)(F)F)cc1S(=O)(=O)CC [Compound 5-77] | D or higher
13 | CCS(=O)(=O)c1cc(SC(F)(F)F)ccc1C(=O)Nc1ccc(C(F)(C(F)(F)F)C(F)(F)F)cc1Cl [Compound 6-24] | D or higher
14 | CC[S+]([O-])c1cc(C(F)(F)F)ccc1C(=O)N(C)c1ccc(SC(F)(F)F)cc1 (centres unmarked) [Compound 3-16] | D or higher
15 | CC[S+]([O-])c1cc(C(F)(F)F)ccc1C(=O)Nc1ccc(OC(F)(F)F)cc1Br (centres unmarked) [Compound 5-73] | D or higher
16 | CCSc1cc(C(F)(F)F)ccc1C(=O)Nc1ccc(C(F)(C(F)F)C(F)(F)F)cc1Cl (centres unmarked) [Compound 5-51] | D or higher
17 | CCS(=O)(=O)c1cc(C(F)(F)F)ccc1C(=O)Nc1ccc(C(F)(F)C(F)(F)C(F)(F)C(F)(F)F)cc1C [Compound 4-16] | D or higher
18 | CCS(=O)(=O)c1cc(C(F)(F)F)ccc1C(=O)N(C)c1ccc(Cl)c(C(F)(F)F)c1 [Compound 3-32] | D or higher
19 | CCS(=O)(=O)c1cc(OC)ccc1C(=O)Nc1ccc(C(F)(C(F)(F)F)C(F)(F)F)cc1C [Compound 6-12] | D or higher
20 | CC[S+]([O-])c1cc(C(F)(F)F)ccc1C(=O)N(C)c1ccc(C(C)C)cc1 (centres unmarked) [Compound 3-19] | D or higher
21 | CCS(=O)(=O)c1cc(C(F)(F)F)ccc1C(=O)Nc1ccc(C(F)(C(F)(F)F)C(F)(F)Br)cc1Cl (centres unmarked) [Compound 5-59] | D or higher
22 | CCS(=O)(=O)c1cc(C(F)(F)F)ccc1C(=O)N(C)c1ccc(C(F)(F)C(F)(F)F)c(C)c1C [Compound 3-50] | D or higher
23 | CC[S+]([O-])c1cc(C(F)(F)F)ccc1C(=O)Nc1ccc(C(F)(C(F)(F)F)C(F)(F)F)cc1Cl (centres unmarked) [Compound 4-27] | D or higher
